This note sets out measurements from patent US12503452B2 (Curza Global, LLC, priority 2019, dated 2025).

For experiment [1], the target named is Rabbit Reticulocyte Lysate (eukaryotic protein synthesis). The experiment is described as follows: Rabbit reticulocyte lysate luciferase assay (inhibition of eukaryotic protein synthesis). The format is biochemical. The settings on record: class by IC50 or % inhibition @ 1 μM, read-out: Rabbit reticulocyte IC50 (μM/% inhib.). The essentials: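 Compounds were tested in 8-point 2-fold dilution series for blocking luciferase synthesis in nuclease-treated rabbit reticulocyte lysate (30° C., 90 minutes). Luminescence read-out, corrected by no-RNA background, was expressed as % inhibition against water-only reactions.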

Experiment [2] deals with A. baumannii (Ab). The experiment is described as follows: Broth microdilution minimum inhibitory concentration (MIC). In kind it is cell-based. The settings on record: A. baumannii, growth medium with sodium bicarbonate; for MIC: Acinetobacter baumannii, read-out: Ab + bicarb MIC. In short, it runs like this:
(§1)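 MICs were run in triplicate per CLSI microdilution (modified, 8 dilution steps), inoculating 5×10^4 CFU/well prepared from colonies grown at 35±2° C to 0.5 McFarland. Media: CAMHB alone, with 6.25 or 25 mM final sodium bicarbonate, or with 0–50% heat-inactivated human serum.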
In general terms: Broth dilution looks for growth in wells or tubes with falling amounts of substance.

Experiment [3] relates to S. aureus (Sa). Described as above. In kind it is cell-based. Particulars: S. aureus, growth medium with sodium bicarbonate; for MIC: Staphylococcus aureus, read-out: Sa + bicarb MIC. In short, it runs like this: as §1
Experiment [4] has as its system P. aeruginosa (Pa). The description is as above. The format is cell-based. Particulars: P. aeruginosa, growth medium with sodium bicarbonate; for MIC: Pseudomonas aeruginosa, read-out: Pa MIC + bicarb. In short, it runs like this: as §1
Experiment [5] has as its system E. faecalis (Ef). Described as above. The format is cell-based. The settings on record: E. faecalis, growth medium with sodium bicarbonate; for MIC: Enterococcus faecalis, read-out: Ef + bicarb MIC. In short, it runs like this:
as §1

Experiment [6] has as its system E. coli (Ec). The description is as above. Particulars: E. coli, growth medium with sodium bicarbonate; for MIC: Escherichia coli, read-out: E. coli + bicarb MIC. In kind it is cell-based. The essentials: as §1
Experiment [7] relates to E. coli S30 extract (bacterial protein synthesis). Nature of the experiment: E. coli S30 extract coupled transcription-translation luciferase assay (inhibition of bacterial protein synthesis). Particulars: class by IC50 or % inhibition @ 1 μM, read-out: S30 IC50 (μM/% inhib.). The format is biochemical. The essentials: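 Luminescent read-out of luciferase made from pBESTluc DNA by E. coli S30 extract after 1 h at 37 °C with compound in an 8-point 2-fold series. Background came from no-DNA reactions. Percent inhibition was calculated against water-only controls.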

Consider `CC(Cc1ccc(-n2ccc(NC(=O)N3CCN(C(=O)C(C)(C)N)CC3)nc2=O)cc1)N(C)[C@H]1CC[C@@H](N)CC1` (stereo partly drawn) [Compound 176], for which the results for the IC50 in experiment [1] and in experiment [7] were above 1 µM and below 0.5 µM, respectively. Also, the “Ab + bicarb MIC” value in experiment [2] is reported as “+ (An MIC value (μg/mL) that is 32 μg/mL or greater)”. Moreover, the “Sa + bicarb MIC” value in experiment [3] was “+++ (An MIC value (μg/mL) that is less than 8 μg/mL)”. Moreover, the “Pa MIC + bicarb” value in experiment [4] is “+ (An MIC value (μg/mL) that is 32 μg/mL or greater)”. The “Ef + bicarb MIC” value in experiment [5] was “+++ (An MIC value (μg/mL) that is less than 8 μg/mL)”. The “E. coli + bicarb MIC” value in experiment [6] is “+++ (An MIC value (μg/mL) that is less than 8 μg/mL)”.

Turning to `CC(C)(N)C(=O)N1CCN(C(=O)Nc2ccn(-c3ccc(CCN[C@H]4CC[C@@H](N)CC4)cc3)c(=O)n2)CC1` [Compound 179], the values for the IC50 in experiment [1] and in experiment [7] were above 1 µM and below 0.5 µM, respectively. The MIC in experiment [2] is above 32 µg/mL; in experiment [3], below 8 µg/mL; in experiment [4], above 32 µg/mL; in experiment [5], 8 to 32 µg/mL; in experiment [6] it was below 8 µg/mL.

Regarding `CC(C)(N)C(=O)N1CCN(C(=O)Nc2ccn(-c3ccc(CCN[C@H]4CC[C@H](N)CC4)cc3)c(=O)n2)CC1` [Compound 180], the IC50 was above 1 µM in experiment [1] and 0.5 to 1 µM in experiment [7]. Also, the MIC in experiment [2] was above 32 µg/mL; in experiment [3] it was 8 to 32 µg/mL; in experiment [4], above 32 µg/mL; in experiment [5] it was above 32 µg/mL; in experiment [6], below 8 µg/mL.

With `CC(C)(N)C(=O)N1CCN(C(=O)Nc2ccn(-c3ccc(CCN[C@@H]4CC[C@H](N)C4)cc3)c(=O)n2)CC1` [Compound 181], the IC50 in experiment [1] was above 1 µM; in experiment [7], below 0.5 µM. Further, the MIC was above 32 µg/mL in experiment [2]; below 8 µg/mL in experiment [3]; above 32 µg/mL in experiment [4]; 8 to 32 µg/mL in experiment [5]; below 8 µg/mL in experiment [6].

As to `CC(CN1CC(N)C1)Oc1ccc(-n2ccc(NC(=O)N3CCN(C(=O)C(C)(C)N)CC3)nc2=O)cc1` (stereo not drawn) [Compound 182], the IC50 in experiment [1] and in experiment [7] was above 1 µM in each case. The MIC is above 32 µg/mL in experiment [2]; above 32 µg/mL in experiment [3]; above 32 µg/mL in experiment [4]; above 32 µg/mL in experiment [5]; 8 to 32 µg/mL in experiment [6].

As to `CC(CNC1CNC1)Oc1ccc(-n2ccc(NC(=O)N3CCN(C(=O)C(C)(C)N)CC3)nc2=O)cc1` (stereo not drawn) [Compound 183], the IC50 in experiment [1] and in experiment [7] was above 1 µM each time. Moreover, the MIC in experiment [2], in experiment [3], in experiment [4], in experiment [5] and in experiment [6] was above 32 µg/mL throughout.

Take `CC(CN1CC[C@H](CN)C1)Oc1ccc(-n2ccc(NC(=O)N3CCN(C(=O)C(C)(C)N)CC3)nc2=O)cc1` (stereo partly drawn) [Compound 184]: the IC50 in experiment [1] was above 1 µM; in experiment [7] it was below 0.5 µM. Further, the MIC in experiment [2] is above 32 µg/mL; in experiment [3], below 8 µg/mL; in experiment [4], above 32 µg/mL; in experiment [5], 8 to 32 µg/mL; in experiment [6] it was below 8 µg/mL.

On to `CC(CN1CC[C@@H](CN)C1)Oc1ccc(-n2ccc(NC(=O)N3CCN(C(=O)C(C)(C)N)CC3)nc2=O)cc1` (stereo partly drawn) [Compound 185], for which the IC50 in experiment [1] is above 1 µM; in experiment [7], below 0.5 µM. The MIC in experiment [2] is above 32 µg/mL; in experiment [3] it was below 8 µg/mL; in experiment [4] it was above 32 µg/mL; in experiment [5], 8 to 32 µg/mL; in experiment [6], below 8 µg/mL.

`CC(COc1ccc(-n2ccc(NC(=O)N3CCN(C(=O)C(C)(C)N)CC3)nc2=O)cc1)N1CC[C@@H](CN)C1` (stereo partly drawn) [Compound 186]: the IC50 in experiment [1] was above 1 µM; in experiment [7] it was below 0.5 µM. In addition, the MIC in experiment [2] was above 32 µg/mL; in experiment [3] it was below 8 µg/mL; in experiment [4], above 32 µg/mL; in experiment [5], 8 to 32 µg/mL; in experiment [6], below 8 µg/mL.

Consider `CC(C)(N)C(=O)N1CCN(C(=O)Nc2ccn(-c3ccc(OCCN4CCCC(N)CC4)cc3)c(=O)n2)CC1` (stereo not drawn) [Compound 187], for which the IC50 in experiment [1] was above 1 µM; in experiment [7] it was below 0.5 µM. Besides, the MIC is 8 to 32 µg/mL in experiment [2]; below 8 µg/mL in experiment [3]; above 32 µg/mL in experiment [4]; below 8 µg/mL in experiment [5]; below 8 µg/mL in experiment [6].

Regarding `CC(C)(N)C(=O)N1CCN(C(=O)Nc2ccn(-c3ccc(OCCN4CCCC(CN)C4)cc3)c(=O)n2)CC1` (stereo not drawn) [Compound 188], the IC50 in experiment [1] is above 1 µM; in experiment [7], below 0.5 µM. Besides, the MIC in experiment [2] is above 32 µg/mL; in experiment [3], below 8 µg/mL; in experiment [4], above 32 µg/mL; in experiment [5], below 8 µg/mL; in experiment [6] it was below 8 µg/mL.

Take `CC(COc1ccc(-n2ccc(NC(=O)N3CCN(C(=O)C(C)(C)N)CC3)nc2=O)cc1)N1CC[C@H](CN)C1` (stereo partly drawn) [Compound 190]: the IC50 in experiment [1] was above 1 µM; in experiment [7] it was below 0.5 µM. The MIC in experiment [2] is above 32 µg/mL; in experiment [3], below 8 µg/mL; in experiment [4] it was above 32 µg/mL; in experiment [5] it was below 8 µg/mL; in experiment [6] it was below 8 µg/mL.

As to `CC(COc1ccc(-n2ccc(NC(=O)N3CCN(C(=O)C(C)(C)N)CC3)nc2=O)cc1)N1CCCC(N)CC1` (stereo not drawn) [Compound 191], the IC50 in experiment [1] was above 1 µM; in experiment [7], 0.5 to 1 µM. For the same molecule, the MIC in experiment [2] is above 32 µg/mL; in experiment [3], below 8 µg/mL; in experiment [4] it was above 32 µg/mL; in experiment [5], 8 to 32 µg/mL; in experiment [6], below 8 µg/mL.

Regarding `NC1CCCN(CCc2ccc(-n3ccc(NC(=O)N4CCC5(CC4)CNC5)nc3=O)cc2)CC1` (stereo not drawn) [Compound 192], the IC50 in experiment [1] and in experiment [7] was above 1 µM in each case. Also, the MIC in experiment [2] was above 32 µg/mL; in experiment [3], below 8 µg/mL; in experiment [4] it was above 32 µg/mL; in experiment [5], 8 to 32 µg/mL; in experiment [6], below 8 µg/mL.

Regarding `NC1CCCN(CCc2ccc(-n3ccc(NC(=O)N4CC5(CC(N)C5)C4)nc3=O)cc2)CC1` (stereo not drawn) [Compound 193], the results for the IC50 in experiment [1] and in experiment [7] were above 1 µM and below 0.5 µM, respectively. For the same molecule, the minimal inhibitory concentration (MIC) in experiment [2] is above 32 µg/mL; in experiment [3], below 8 µg/mL; in experiment [4], above 32 µg/mL; in experiment [5], 8 to 32 µg/mL; in experiment [6], below 8 µg/mL.

Take `NCC1CN(C(=O)Nc2ccn(-c3ccc(CCN4CCCC(N)CC4)cc3)c(=O)n2)C1` (stereo not drawn) [Compound 194]: the IC50 in experiment [1] was above 1 µM; in experiment [7], 0.5 to 1 µM. Also, the MIC in experiment [2] was above 32 µg/mL; in experiment [3] it was above 32 µg/mL; in experiment [4], above 32 µg/mL; in experiment [5], above 32 µg/mL; in experiment [6], below 8 µg/mL.

For `NC1CCCN(CCc2ccc(-n3ccc(NC(=O)N4CC5(CCC5N)C4)nc3=O)cc2)CC1` (stereo not drawn) [Compound 195], the figures for the IC50 in experiment [1] and in experiment [7] were above 1 µM and 0.5 to 1 µM, respectively. The MIC in experiment [2] is above 32 µg/mL; in experiment [3] it was 8 to 32 µg/mL; in experiment [4], above 32 µg/mL; in experiment [5] it was above 32 µg/mL; in experiment [6] it was above 32 µg/mL.

In the case of `CC(C)(N)C(=O)N1CCN(C(=O)Nc2ccn(-c3ccc(CCN4CCC(N)CC4)cc3)c(=O)n2)CC1` [Compound 198], the IC50 in experiment [1] is above 1 µM; in experiment [7] it was below 0.5 µM. In addition, the MIC in experiment [2] is above 32 µg/mL; in experiment [3], 8 to 32 µg/mL; in experiment [4], above 32 µg/mL; in experiment [5] it was 8 to 32 µg/mL; in experiment [6], below 8 µg/mL.

Consider `C[C@@](N)(CO)C(=O)N1CCN(C(=O)Nc2ccn(-c3ccc(CCN4CCC(N)CC4)cc3)c(=O)n2)CC1` [Compound 199], for which the IC50 in experiment [1] was above 1 µM; in experiment [7], below 0.5 µM. Also, the MIC was above 32 µg/mL in experiment [2]; 8 to 32 µg/mL in experiment [3]; above 32 µg/mL in experiment [4]; above 32 µg/mL in experiment [5]; below 8 µg/mL in experiment [6].

Regarding `CCOC(=O)C1(CN)CN(Cc2ccc(-n3ccc(NC(=O)N4CCN(C(=O)C(C)(C)N)CC4)nc3=O)cc2)C1` [Compound 201], the IC50 in experiment [1] and in experiment [7] was above 1 µM in each case. The MIC in experiment [2], in experiment [3], in experiment [4], in experiment [5] and in experiment [6] was above 32 µg/mL in each case.

With `CC(C)(N)C(=O)N1CCN(C(=O)Nc2ccn(-c3ccc(CN4CC(O)(CCN)C4)cc3)c(=O)n2)CC1` [Compound 205], the IC50 in experiment [1] was above 1 µM; in experiment [7], below 0.5 µM. Also, the MIC is above 32 µg/mL in experiment [2]; 8 to 32 µg/mL in experiment [3]; above 32 µg/mL in experiment [4]; above 32 µg/mL in experiment [5]; below 8 µg/mL in experiment [6].

Usually MIC stands for the least concentration at which growth counts as inhibited.
